Assay results taken from patent publication US20090192327A1, “METHODS AND COMPOSITIONS FOR INHIBITING BIOFILMS” (Sequoia Sciences, Inc., priority 2004, published 2009).
Entries after “also recorded” stand apart in the source; their conditions may differ.

Experiments:
[1] = tested on: Escherichia coli; assay: Minimum inhibitory concentration (NCCLS broth microdilution); type: cell-based; conditions: LB media with 0.2% glucose, 35° C. for 20-24 hours
Experimental: (§1) The minimum inhibitory concentrations (MICs) for several of the specific biofilm inhibitors described herein were determined against several targets, including P. aeruginosa, E. coli, and Staphylococcus aureus. The MICs of the biofilm inhibitors were measured using the reference broth microdilution method recommended by the National Committee for Clinical Laboratory Standards (NCCLS).
(§2) […]. The negative control, generally, included the solvent in which the test compounds were dissolved. In this example, the wells correlating to the negative controls included ethanol (without any biofilm inhibitors).
(§3) In this example, 150 μl of sterile media was added to each well (LB media with 0.2% glucose), along with appropriate volumes of concentrated solutions of the inhibitors to be tested, followed by 50 μl of bacterial inoculum. Thus, each well contained a final volume of approximately 200 μl (not including the volume of the concentrated inhibitor). […]. The plate was subsequently rinsed, stained, and analyzed in accordance with the procedures described in Example 1.
(§4) Tables 7, 8, and 9 summarize the data observed and, specifically, the MICs calculated for the several compounds referenced therein against P. aeruginosa, E. coli, and S. aureus, respectively. The minimum inhibitory concentrations were calculated as the lowest inhibitor concentration at which biofilm inhibition was observed.

[2] = tested on: Staphylococcus aureus; assay: as above; type: cell-based; conditions: LB media with 0.2% glucose; 35° C. for 20-24 hours
Experimental: as §1, §2, §3, §4

[3] = tested on: E. coli; assay: Effect on viability/growth of E. coli (absorbance 620 nm); type: cell-based, Escherichia coli; conditions: 1 to 15 μg/mL; LB media; 37° C. for two days; FIG. 1
Experimental: The dose/response behavior of compound 108 was tested against E. coli in LB media with and without 0.2% glucose. First, the effect of compound 108 on the viability of E. coli was measured. Compound 108 was added to a 96-well microtiter plate in triplicate wells to final concentrations of 0, 1, 2, 5, 10, and 15 μg/mL. Compound 108 was added to each well on the plate along with 50 μL of E. coli inoculum and 150 μL of LB and incubated at 37° C. for two days without shaking. After incubation, the plate was analyzed spectrophotometrically at 620 nm to quantitate the approximate levels of E. coli growth. The absorbance values observed for the test wells were averaged and compared to a negative control, i.e., wells containing no biofilm inhibitor.

[4] = tested on: Pseudomonas aeruginosa; assay: Microtiter plate biofilm inhibition assay (crystal violet); type: cell-based; conditions: 10 μg/ml, LB media with 0.2% glucose, 24 hours at room temperature, average of three wells
Experimental: A microtiter plate assay was used to quantitatively measure the effect each tested compound had on the ability of bacteria to form a biofilm. In this example, a concentrated solution of each compound tested was loaded separately into three separate wells of a polystyrene microtiter plate. In addition, each assay included triplicate wells correlating to negative and positive controls. For the positive controls, biofilm inhibitors of known activity were used, whereas no inhibitors were added to wells correlating to negative controls. […] Thus, each well contained a final volume of approximately 200 μl (not including the volume of the concentrated inhibitor). […] The microtiter plates were then placed on a shaker for 24 hours at room temperature. After the 24 hour incubation period, the microtiter plate was removed from the shaker, rinsed, and stained. During the rinsing step, the test compound, media, and bacterial inoculum solution was drained from the plate, approximately 300 μl of 0.1M phosphate buffered saline (PBS) was added to each well, which was subsequently drained from the plate. The rinsing step removed any suspended cells from the assay. 0.1% crystal violet stain was added to each well for approximately 20 minutes. Next, the crystal violet solution was drained from the microtiter plate. The plate was rinsed with PBS as described above four (4) times to remove any excess stain from the plate. Following the PBS rinsing steps, the plate was eluted with 250 μl/well of ethanol, which improved the detection of the stain. The plate was immediately analyzed spectrophotometrically at 540 nm using a microtiter plate reader. The inhibitory effect each compound had on the bacteria's ability to form a biofilm on the surface of each well was determined as follows: The absorbance values observed for each set of three (3) wells correlating with a test compound or control were averaged. The average absorbance value for each test compound was compared to the average absorbance value of the negative control (the positive control was employed to verify proper assay function). In general, biofilm inhibition activity is inversely proportional to absorbance values, whereby, for example, low absorbance values correlate with significant inhibition activity and high absorbance values correlate with small or no inhibition activity. The approximate percent inhibition observed for each compound was calculated by comparing the average absorbance value for each test compound to the average absorbance value for the negative controls. Table 2 summarizes the average percent inhibition observed for the tested compounds listed against biofilms generated by Pseudomonas aeruginosa.

[5] = tested on: Pseudomonas aeruginosa; assay: Minimum inhibitory concentration (NCCLS broth microdilution); type: cell-based; conditions: LB media with 0.2% glucose, 35° C. for 20-24 hours
Experimental: The minimum inhibitory concentrations (MICs) for several of the specific biofilm inhibitors described herein were determined against several targets, including P. aeruginosa, E. coli, and Staphylococcus aureus. The MICs of the biofilm inhibitors were measured using the reference broth microdilution method recommended by the National Committee for Clinical Laboratory Standards (NCCLS). […] In each assay, positive and negative controls were employed, wherein the positive control included an antimicrobial agent with a known potency range that was used to ensure proper assay performance. The negative control, generally, included the solvent in which the test compounds were dissolved. In this example, the wells correlating to the negative controls included ethanol (without any biofilm inhibitors). […] Thus, each well contained a final volume of approximately 200 μl (not including the volume of the concentrated inhibitor). […] After bacterial inoculation and loading of test and control samples, the plate was incubated in an ambient air environment at 35° C. for 20-24 hours. The plate was subsequently rinsed, stained, and analyzed in accordance with the procedures described in Example 1. […] The minimum inhibitory concentrations were calculated as the lowest inhibitor concentration at which biofilm inhibition was observed.

[6] = tested on: E. coli JM109; assay: Biofilm inhibition assay in 96 well plates (adapted from Pratt and Kolter); type: cell-based, Escherichia coli; conditions: 10 μg/ml, LB with or without 0.2% glucose, 37° C. for two days without shaking
Experimental: Such compounds were evaluated using an assay adapted from a protocol reported in Pratt and Kolter, 1998, Molecular Microbiology, 30: 285-293; and Li et al., 2001, J. Bacteriol., 183: 897-908. […] Negative controls included only ethanol (the solvent for each test compound). To quantify the biofilm mass, the suspension culture was removed, the biofilm was washed three times with water, and then stained with 0.1% crystal violet for 20 minutes. Next, the plates were washed three times with water and analyzed by spectrophotometry at 540 nm to quantify the biofilm mass (by comparing the biofilm mass in the wells containing a test compound to that of the control wells).

[7] = tested on: E. coli; assay: Dose/response biofilm assay against E. coli (crystal violet, 540 nm); type: cell-based, Escherichia coli
Experimental: In this example, dose/response characteristics of the biofilm inhibitors were measured using compound 108. The assay employed to measure such dose/response characteristics was adapted from a reported protocol. See Pratt and Kolter, 1998, Molecular Microbiology, 30: 285-293; and Li et al., 2001, J. Bacteriol., 183: 897-908.
The biofilm inhibitory effect of compound 108 was then evaluated at different times and concentrations. In the first assay, compound 108 was added to the test system at the same time as the E. coli inoculum. Specifically, compound 108 was added to the system at final concentrations of 0, 1, 2, 5, and 10 μg/mL along with 50 μL of E. coli inoculum and 150 μL of LB media to measure its ability to inhibit the formation of biofilms. In a second assay, compound 108 was added after a biofilm had formed, i.e., 24 hours after the assay plate was inoculated with E. coli in LB media. In a third assay, compound 108 was tested at 0, 1, 2, 5, 10, and 15 μg/mL against E. coli in LB media with 0.2% glucose (whereby compound 108 was introduced into the system at the time of inoculation).
The suspension culture in each of the assay systems described above was drained from the plate and the residual biofilm, if any, was washed three (3) times with water. A solution containing 0.1% crystal violet was added to each well and maintained thereon for approximately 20 minutes. Following the staining procedure, each well was rinsed three (3) times with water. Each well was then analyzed spectrophotometrically in a microtiter plate reader at 540 nm to quantitate approximate biofilm mass and inhibition of biofilm growth by comparison to a negative control, which included inoculum and growth media alone.

[8] = tested on: Staphylococcus epidermidis; assay: Biofilm inhibition assay against Staphylococcus epidermidis; type: cell-based; conditions: final concentration of 10 μg/ml, read-out: Inhibition of biofilm formation by S. epidermidis
[9] = tested on: Pseudomonas aeruginosa strain PAO 1; assay: Rotating disk reactor biofilm test in combination with tobramycin; type: cell-based; conditions: 48 hours biofilm; compound 110 approximately 100 μg/mL for 24 hours; tobramycin 100 μg/mL for two hours; polystyrene coupons
Experimental: In this example, compound 110 was tested for biofilm inhibition with Pseudomonas aeruginosa in combination with Tobramycin. Specifically, biofilm formation of P. aeruginosa was evaluated using a standardized biofilm method with a rotating disk reactor (RDR), which is also known as “ASTM Standard Method #E-2196-02.” The rotating disk reactor consisted of a one-liter glass beaker fitted with a drain spout. The bottom of the vessel contained a magnetically driven rotor with six 1.27 cm diameter coupons constructed from polystyrene. The rotor consisted of a star-head magnetic stir bar upon which a disk was affixed to hold the coupons. The vessel (with the stir bar) was placed on a stir plate and rotated to provide fluid shear. A nutrient solution (AB Trace Medium with 0.3 mM glucose, see Table 5 below for specific formulation) was added through a stopper in the top of the reactor at a flow rate of 5 mL/min. The reactor volume was approximately 180 mL. At a volume of 180 mL, the residence time of the reactors was 36 minutes. The reactors were operated at room temperature (c.a. 26° C.). In this example, two RDRs were operated in parallel with one receiving compound 110 and the other serving as an untreated control. […] The plates were incubated for 24 hours at 37° C. before colony forming units (CFU) were determined.

[10] = tested on: human hepatocellular carcinoma cells (HepG2); assay: Cytotoxicity, fluorometric detection of mitochondrial activity; type: cell-based; conditions: triplicate, approximate, gross cytotoxicity
Excerpt: Met. […] Chlorpromazine (or its equivalent) was used as a positive control.

| MIC ([1]; Escherichia coli, read-out: MIC (μg/mL) - Escherichia coli) | MIC ([5]; Pseudomonas aeruginosa, read-out: MIC (μg/mL) - Pseudomonas aeruginosa) | Structure (SMILES) | MIC (μg/mL) - Escherichia coli [1] | MIC (μg/mL) - Staphylococcus aureus [2] | Effect on growth of E. coli [3] | Biofilm Inhibition- Pseudomonas aeruginosa [4] | MIC (μg/mL) - Pseudomonas aeruginosa [5] | Biofilm Inhibition- Escherichia coli [6] | Prevention of biofilm growth at 15 μg/mL ([7]; 15 μg/mL, E. coli in LB, added with inoculum, 0 through 50 hours of incubation, FIG. 2) | Concentration as low as which effective at reducing biofilm mass ([7]; E. coli in LB with 0.2% glucose, added along with the inoculum, FIG. 5) | Concentration as low as which reduces existing biofilm mass ([7]; E. coli in LB, added 24 hours after inoculation, FIG. 4) | Concentration as low as which effective in preventing biofilm formation ([7]; E. coli in LB, added along with the inoculum, FIGS. 2 and 3) | Estimated mass of existing biofilm after 24 hours of incubation with compound ([7]; each of the concentrations tested (1, 2, 5, 10 μg/mL), added 24 hours after inoculation, approximately 50 hours post inoculation, FIG. 4) | inhibition at 10 µg/mL [8] | inhibition at 10 µg/mL ([4]; Pseudomonas aeruginosa) | inhibition at 10 µg/mL ([6]; Escherichia coli, JM 109, 48 h) | CFU (in log 10) [9] | Inhibition at 30 μM - Hep G2 cells [10] |
| --- | --- | --- | --- | --- | --- | --- | --- | --- | --- | --- | --- | --- | --- | --- | --- | --- | --- | --- |
|  |  | C[C@@H]1CC[C@]2(C(=O)O)CCC3(C)C(=CCC4C5(C)C[C@@H](O)[C@H](O)C(C)(C)C5CCC43C)C2[C@H]1C (stereo partly drawn) [Compound 108] | >15 µg/mL | >32 µg/mL | did not inhibit the growth; also recorded: does not inhibit the growth | 52% | >10 µg/mL | 74% | almost completely prevent biofilm growth | 1 µg/mL | 1 µg/mL | 1 µg/mL | decreased significantly |  |  |  |  |  |
| > 10 µg/mL | > 128 µg/mL | C[C@H]1[C@H](C)CC[C@]2(C(=O)O)CC[C@]3(C)C(=CC[C@@H]4[C@@]5(C)CC[C@H](O)C(C)(C)[C@@H]5CC[C@]43C)[C@H]12 [Compound 110, ursolic acid] |  |  |  |  |  |  |  |  |  |  |  | ~25% | 35% | 80% | 7.1 CFU (in log 10) | 2% |
